# Experiments:
# Assay type in all cases: cell-based
# [1] = system: Human pancreatic cancer cell CFPAC-1; assay: CCK-8 cell proliferation assay, CFPAC-1; details: CFPAC-1 cells, 72 hrs with drug, CCK-8, OD 450 nm
# Method: (§1) The effect of samples on the proliferation of human tumor cells in vitro was determined by CCK-8 cell proliferation assay.
# (§2) The cells were assayed through a method including the following steps: • 1) The cells were digested, counted, and prepared into a cell suspension in a corresponding culture medium (Table 1) (5×10^4 cells/ml for CFPAC-1 and RPMI 8226, and 3.5×10^4 cells/ml for rest cells). The cell suspension was added to each well of a 96-well plate in 100 μl/well. • 2) Then the 96-well plate was incubated for 24 hrs in an incubator at 37° C. and 5% CO2. • 3) The drug was diluted with the culture medium to the required working concentration. 100 μl of the corresponding drug containing medium was added to each well.
# [2] = system: Human multiple myeloma cell RPMI 8226; assay: CCK-8 cell proliferation assay, RPMI 8226; details: RPMI8226 cells, 72 hrs with drug, CCK-8, OD 450 nm
# Method: as §1, §2
# [3] = system: Human colon cancer cell HCT-116; assay: CCK-8 cell proliferation assay, HCT-116; details: HCT116 cells, 72 hrs with drug, CCK-8, OD 450 nm
# Method: as §1, §2
# [4] = system: Human esophageal cancer cell TE-1; assay: CCK-8 cell proliferation assay, TE-1; details: TE-1 cells, 72 hrs with drug, CCK-8, OD 450 nm
# Method: as §1, §2
# [5] = system: Human hepatoma cell HepG2; assay: CCK-8 cell proliferation assay, HepG2; details: HepG2 cells, 72 hrs with drug, CCK-8, OD 450 nm
# Method: as §1, §2
# [6] = system: Human gastric cancer cell MKN45; assay: CCK-8 cell proliferation assay, MKN45; details: MKN-45 cells, 72 hrs with drug, CCK-8, OD 450 nm
# Method: as §1, §2
# [7] = system: Human lung adenocarcinoma cell A549; assay: CCK-8 cell proliferation assay, A549; details: A549 cells, 72 hrs with drug, CCK-8, OD 450 nm
# Method: as §1, §2
IC50 [1],IC50 [2],IC50 [3],IC50 [4],IC50 [5],IC50 [6],IC50 [7],Structure (SMILES)
55 nM,49 nM,106 nM,118 nM,93 nM,65 nM,79 nM,"N#CN=C(NCCCCCN1CCN(C(=O)C2Cc3ccccc3O2)CC1)Nc1ccncc1 (stereo not drawn) [BSS-PC021, 2-cyano-1-(5-(1-(2-benzotetrahydrofurylfuryl)piperazine-4-yl)pentyl)-3-(4-pyridinyl)guanidine]"
22 nM,22 nM,43 nM,30 nM,31 nM,34 nM,25 nM,"N#CN=C(NCCCCCCC1CCN(C(=O)c2cccs2)C1)Nc1ccncc1 (stereo not drawn) [BSS-PC053, 2-cyano-1-(6-(1-(2-thienylformyl)pyrrolidine-3-yl)hexyl)-3-(4-pyridinyl)guanidine]"
33 nM,27 nM,39 nM,40 nM,42 nM,31 nM,51 nM,N#CN=C(NCCCCCC1CCN(C(=O)c2ccco2)C1)Nc1cccnc1 (stereo not drawn) [BSS-PC051]
41 nM,32 nM,87 nM,52 nM,68 nM,33 nM,39 nM,"N#CN=C(NCCCCCC1CCN(C(=O)c2sccc2F)C1)Nc1ccncc1 (stereo not drawn) [BSS-PC050, 2-cyano-1-(5-(1-(3-fluoro-2-thienylformyl)pyrrolidine-3-yl)pentyl)-3-(4-pyridinyl)guanidine]"
29 nM,17 nM,42 nM,67 nM,76 nM,33 nM,51 nM,"N#CN=C(NCCCCCC1CCN(C(=O)c2ccc[nH]2)C1)Nc1ccncc1 (stereo not drawn) [BSS-PC033, 2-cyano-1-(5-(1-(2-pyrrolylformyl)pyrrolidine-3-yl)pentyl)-3-(4-pyridinyl)guanidine]"
57 nM,35 nM,85 nM,93 nM,72 nM,51 nM,61 nM,"N#CN=C(NCCCCCN1CCN(C(=O)c2cc3ccccc3[nH]2)CC1)Nc1ccncc1 [BSS-PC020, 2-cyano-1-(5-(1-(2-indolylformyl)piperazine-4-yl)pentyl)-3-(4-pyridinyl)guanidine]"
29 nM,26 nM,53 nM,46 nM,42 nM,45 nM,33 nM,N#CN=C(NCCCCCCC1CCN(C(=O)c2ccco2)C1)Nc1cc(F)nc(F)c1 (stereo not drawn) [BSS-PC076]
25 nM,29 nM,52 nM,57 nM,68 nM,61 nM,26 nM,"N#CN=C(NCCCCCC1CCN(C(=O)c2ccco2)C1)Nc1ccncc1 (stereo not drawn) [BSS-PC032, 2-cyano-1-(5-(1-(furoyl)pyrrolidine-3-yl)pentyl)-3-(4-pyridinyl)guanidine]"
37 nM,20 nM,92 nM,112 nM,99 nM,39 nM,37 nM,"O=C(/C=C/c1cccnc1)NCCCCC1CCN(C(=O)c2ccccc2)CC1 [FK866, reference compound]"
27 nM,29 nM,55 nM,96 nM,91 nM,72 nM,36 nM,"N#CN=C(NCCCCCN1CCN(C(=O)c2ccco2)CC1)Nc1ccncc1 [BSS-PC007, 2-cyano-1-(5-((1-furoyl)piperazine-4-yl)pentyl)-3-(4-pyridinyl)guanidine]"
58 nM,43 nM,91 nM,53 nM,82 nM,64 nM,57 nM,"N#CN=C(NCCCCCN1CCN(C(=O)c2sccc2F)CC1)Nc1ccncc1 [BSS-PC025, 2-cyano-1-(5-(1-(3-fluoro-2-thienylformyl)piperazine-4-yl)pentyl)-3-(4-pyridinyl)guanidine]"
52 nM,43 nM,82 nM,71 nM,75 nM,69 nM,42 nM,"N#CN=C(NCCCCCCC1CCN(C(=O)C2CCCS2)C1)Nc1ccncc1 (stereo not drawn) [BSS-PC058, 2-cyano-1-(6-(1-(2-tetrahydrothienylformyl)pyrrolidine-3-yl)hexyl)-3-(4-pyridinyl)guanidine]"

# Second part, the compound before the results:
Structure (SMILES),IC50 [1],IC50 [2],IC50 [3],IC50 [4],IC50 [5],IC50 [6],IC50 [7]
"COc1cccc(OC)c1C(=O)N1CCN(CCCCCNC(=NC#N)Nc2ccncc2)CC1 [BSS-PC006, 2-cyano-1-(5-(1-(2,6-dimethoxybenzoyl)piperazine-4-yl)pentyl)-3-(4-pyridinyl)guanidine]",55 nM,34 nM,76 nM,125 nM,92 nM,89 nM,73 nM
"N#CN=C(NCCCCCC1CCN(C(=O)c2ccccc2)C1)Nc1cccnc1 (stereo not drawn) [BSS-PC044, 2-cyano-1-(5-((1-benzoyl)pyrrolidine-3-yl)pentyl)-3-(3-pyridinyl)guanidine]",38 nM,20 nM,40 nM,34 nM,42 nM,53 nM,41 nM
"N#CN=C(NCCCCCC1CCN(C(=O)C2Cc3ccccc3O2)C1)Nc1ccncc1 (stereo not drawn) [BSS-PC046, 2-cyano-1-(5-(1-(2-benzotetrahydrofurylfuryl)pyrrolidine-3-yl)pentyl)-3-(4-pyridinyl)guanidine]",42 nM,45 nM,74 nM,83 nM,85 nM,61 nM,71 nM
"N#CN=C(NCCCCCC1CCN(C(=O)c2cc3ccccc3[nH]2)C1)Nc1ccncc1 (stereo not drawn) [BSS-PC045, 2-cyano-1-(5-(1-(2-indolylformyl)pyrrolidine-3-yl)pentyl)-3-(4-pyridinyl)guanidine]",64 nM,52 nM,86 nM,90 nM,117 nM,58 nM,79 nM
"N#CN=C(NCCCCCC1CCN(C(=O)c2cc3ccccc3o2)C1)Nc1ccncc1 (stereo not drawn) [BSS-PC047, 2-cyano-1-(5-(1-(2-benzofurylformyl)pyrrolidine-3-yl)pentyl)-3-(4-pyridinyl)guanidine]",50 nM,42 nM,63 nM,68 nM,79 nM,55 nM,66 nM
N#CN=C(NCCCCCN1CCN(C(=O)C2CCCO2)CC1)Nc1ccncc1 (stereo not drawn) [BSS-PC011],39 nM,42 nM,49 nM,47 nM,52 nM,61 nM,40 nM
"N#CN=C(NCCCCCN1CCN(C(=O)C2CCCN2)CC1)Nc1ccncc1 (stereo not drawn) [BSS-PC010, 2-cyano-1-(5-(1-(2-pyrrolidinylformyl)piperazine-4-yl)pentyl)-3-(4-pyridinyl)guanidine]",33 nM,39 nM,69 nM,86 nM,61 nM,53 nM,67 nM
"N#CN=C(NCCCCCN1CCN(C(=O)c2ccccc2)CC1)Nc1cccnc1 [BSS-PC019, 2-cyano-1-(5-((1-benzoyl)piperazine-4-yl)pentyl)-3-(3-pyridinyl)guanidine]",46 nM,38 nM,73 nM,64 nM,83 nM,52 nM,71 nM
"N#CN=C(NCCCCCCC1CCN(C(=O)c2ccccc2)C1)Nc1ccncc1 (stereo not drawn) [BSS-PC054, 2-cyano-1-(6-((1-benzoyl)pyrrolidine-3-yl)hexyl)-3-(4-pyridinyl)guanidine]",39 nM,30 nM,52 nM,46 nM,57 nM,49 nM,33 nM
"N#CN=C(NCCCCCC1CCN(C(=O)c2cccs2)C1)Nc1cccnc1 (stereo not drawn) [BSS-PC043, 2-cyano-1-(5-(1-(2-thienylformyl)pyrrolidine-3-yl)pentyl)-3-(3-pyridinyl)guanidine]",36 nM,29 nM,51 nM,92 nM,83 nM,69 nM,45 nM
"N#CN=C(NCCCCCC1CCN(C(=O)c2occc2F)C1)Nc1ccncc1 (stereo not drawn) [BSS-PC048, 2-cyano-1-(5-(1-(3-fluoro-2-furylformyl)pyrrolidine-3-yl)pentyl)-3-(4-pyridinyl)guanidine]",36 nM,33 nM,60 nM,51 nM,47 nM,34 nM,42 nM
"N#CN=C(NCCCCCC1CCN(C(=O)c2cccs2)C1)Nc1ccncc1 (stereo not drawn) [BSS-PC029, 2-cyano-1-(5-(1-(2-thienylformyl)pyrrolidine-3-yl)pentyl)-3-(4-pyridinyl)guanidine]",34 nM,19 nM,52 nM,66 nM,64 nM,36 nM,35 nM

# — US12091385B2, “Pyridinylcyanoguanidine derivative and use thereof” (Rushi Biotech (Hangzhou) Co., Ltd, priority 2021, dated 2024)
